Legend:
[1] = target: T1, hKv3.1 (Homo sapiens, UniProt P48547); experiment: Automated patch clamp (Patchliner) whole-cell electrophysiology, Kv3.1; type: cell-based; details: 10 μM compound, CHO-K1 cells stably expressing hKv3.1; for Kv3.1 Activity at 10 μM Potentiation (%): % potentiation of peak current at −10 mV voltage step vs vehicle; for Kv3.1 Activity at 10 μM Voltage Shift (mV): voltage shift of the IV curve at V1/2
T1 construct: expressed in transfected cells
T1 sequence (P48547 1-511): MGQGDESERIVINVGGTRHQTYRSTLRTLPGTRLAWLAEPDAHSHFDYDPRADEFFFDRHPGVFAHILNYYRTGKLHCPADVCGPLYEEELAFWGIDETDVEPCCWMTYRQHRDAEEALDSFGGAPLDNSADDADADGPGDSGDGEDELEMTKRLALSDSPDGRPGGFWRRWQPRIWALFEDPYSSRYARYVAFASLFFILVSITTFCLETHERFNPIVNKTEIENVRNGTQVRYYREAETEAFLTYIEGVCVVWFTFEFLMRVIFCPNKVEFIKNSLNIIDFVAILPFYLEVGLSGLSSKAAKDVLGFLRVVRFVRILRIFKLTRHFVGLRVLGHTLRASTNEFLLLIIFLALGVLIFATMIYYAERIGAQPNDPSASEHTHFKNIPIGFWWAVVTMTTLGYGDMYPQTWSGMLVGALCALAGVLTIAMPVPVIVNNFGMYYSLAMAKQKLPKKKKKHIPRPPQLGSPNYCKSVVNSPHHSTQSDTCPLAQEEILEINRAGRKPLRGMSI
Experimental: (§1) hKv3.1, hKv3.2, hKv3.3, and hKv3.4 were stably expressed in CHO-K1 (Chinese hamster ovary) cells and kept under constant antibiotic selection. For in vitro assays, cells were maintained in appropriate growth medium at 37° C. and 5% CO2 in a humidified incubator.
(§2) hKv3.X expressing cells were plated in T-25 flasks for 3-4 days at 37° C. (no selection antibiotic) prior to use and grown to 80% confluence. Cells were washed twice with PBS (calcium and magnesium free) and detached with a 5-minute treatment at 37° C. with 2-3 mls of Accutase®. Cells were collected, and flask was washed in CHO-SFM II media (Life Technologies Gibco), centrifuged for 2 minutes at ˜110×g and resuspended to obtain a single cell suspension of ˜2-3×10^6 cells/ml.
(§3) The intracellular solution contained the following (in mM): KCl 50, NaCl 10, KF 60, EGTA 20, HEPES 10, adjusted to pH 7.2 with KOH and an osmolarity of 285 mOsmol. Seal enhancer was purchased from Nanion (80 mM NaCl, 3 mM KCl, 10 mM MgCl2, 35 mM CaCl2), 10 mM HEPES, pH7.4, 298 mOsmol. The external solution contained (in mM): NaCl 140, KCl 4, CaCl2) 2, MgCl2 1, HEPES 10, Glucose 5, adjusted to pH7.4 and an osmolarity of 298 mOsmol.
(§4) All compounds were initially tested at 10 uM at a final DMSO concentration of 0.33%. Compounds were dissolved in dimethylsulfoxide (DMSO) at a stock concentration of 30 mM. The compound was further diluted 1:10 to give a stock concentration of 3 mM in DMSO. The final assay solution was diluted 1:300 in External solution to give a final concentration of 10 uM. For the DMSO Control Buffer 30 uL of DMSO was added to 10 mL buffer.
(§5) All electrophysiological recordings were performed at ambient temperature (21-23° C.) using automated patch clamp (Patchliner, Nanion Technologies GmbH) in the whole-cell configuration.
(§6) Cell membrane potentials were held at −80 mV, and currents were evoked by voltage steps (1000 ms duration) from −60 to +60 mV in 10 mV increments. This was performed first with vehicle (0.33% DMSO) and then with 10 uM compound, after a 3-minute incubation period. Data was taken from 4 cells per assay.
(§7) The recordings were analysed and selected using peak current amplitude (>100 pA at the −10 mV voltage step) in the absence of compound to eliminate unsuitable cells from analysis. Peak current amplitude was measured and recorded for each voltage step and data was normalised to the maximum current at +60 mV. The normalised Kv3.x currents following addition of the compound were then compared with the currents recorded prior to compound addition (vehicle control). Positive modulation was determined as % potentiation at the voltage step of −10 mV=[current (cmpd)/current (veh)]*100−100. % potentiation ≥50% was considered acceptable. In addition, voltage shift of the IV curve at V1/2 was measured. V1/2 of ≥−5 mV was also considered acceptable. IV curves were plotted in GraphPad Prism (software version 6.0) and fitted with a Boltzmann equation, where V1/2 is the voltage at half-maximal activation.

[2] = target: T2, hKv3.2 (Homo sapiens, UniProt Q96PR1); experiment: Automated patch clamp (Patchliner) whole-cell electrophysiology, Kv3.2; type: cell-based; details: 10 μM compound, CHO-K1 cells stably expressing hKv3.2; for activation at 10 µM: % potentiation of peak current at −10 mV voltage step vs vehicle; for Kv3.2 Activity at 10 μM Voltage Shift (mV): voltage shift of the IV curve at V1/2
T2 construct: expressed in transfected cells
T2 sequence (Q96PR1 1-638): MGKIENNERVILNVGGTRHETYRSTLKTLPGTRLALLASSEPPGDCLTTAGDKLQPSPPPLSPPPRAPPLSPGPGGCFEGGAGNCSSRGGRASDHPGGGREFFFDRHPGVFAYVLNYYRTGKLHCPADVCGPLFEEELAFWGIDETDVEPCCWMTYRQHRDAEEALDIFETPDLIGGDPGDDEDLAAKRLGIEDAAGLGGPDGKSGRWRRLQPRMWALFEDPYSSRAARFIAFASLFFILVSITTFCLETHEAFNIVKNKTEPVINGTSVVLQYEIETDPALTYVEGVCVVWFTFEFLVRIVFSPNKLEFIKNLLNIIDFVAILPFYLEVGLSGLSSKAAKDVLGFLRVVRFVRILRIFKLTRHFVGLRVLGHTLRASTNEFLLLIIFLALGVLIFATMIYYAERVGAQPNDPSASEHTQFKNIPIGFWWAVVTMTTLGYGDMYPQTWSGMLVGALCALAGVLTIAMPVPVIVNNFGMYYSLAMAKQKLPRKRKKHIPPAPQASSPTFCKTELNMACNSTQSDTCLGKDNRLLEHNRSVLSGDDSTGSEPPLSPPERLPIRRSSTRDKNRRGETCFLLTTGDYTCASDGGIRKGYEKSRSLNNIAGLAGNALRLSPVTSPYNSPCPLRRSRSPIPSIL
Experimental: as §1, §2, §3, §4, §5, §6, §7

## CC[C@@]1(C)NC(=O)N(c2cccc(Oc3ccc(C)c(OC)c3)n2)C1=O [Example 58, (5R)-5-ethyl-3-[6-(3-methoxy-4-methyl-phenoxy)-2-pyridyl]-5-methyl-imidazolidine-2,4-dione]
[1]
  Kv3.1 Activity at 10 μM Potentiation (%): 35%
  Kv3.1 Activity at 10 μM Voltage Shift (mV): −5.32 mV
[2]
  activation at 10 µM: 33%
  Kv3.2 Activity at 10 μM Voltage Shift (mV): −2.6 mV

## CC1(C)NC(=O)N(c2ccc(F)c(Oc3ccc4c(c3)OC(F)(F)O4)n2)C1=O [Example 84, 3-[6-[(2,2-difluoro-1,3-benzodioxol-5-yl)oxy]-5-fluoro-2-pyridyl]-5,5-dimethyl-imidazolidine-2,4-dione]
[1]
  Kv3.1 Activity at 10 μM Potentiation (%): 30%
  Kv3.1 Activity at 10 μM Voltage Shift (mV): −2.27 mV
[2]
  activation at 10 µM: 14%
  Kv3.2 Activity at 10 μM Voltage Shift (mV): −1.69 mV

## CC[C@H]1NC(=O)N(c2cccc(Oc3ccc(C)c(OC)c3)n2)C1=O [Example 48, (5R)-5-ethyl-3-[6-(3-methoxy-4-methyl-phenoxy)-2-pyridyl]imidazolidine-2,4-dione]
[1]
  Kv3.1 Activity at 10 μM Potentiation (%): 62%
  Kv3.1 Activity at 10 μM Voltage Shift (mV): −4.26 mV
[2]
  activation at 10 µM: 61%
  Kv3.2 Activity at 10 μM Voltage Shift (mV): −5.3 mV

## COc1cc(Oc2cc(N3C(=O)NC(C)(C)C3=O)ccn2)ccc1C(F)(F)F [Example 4, 3-[2-[3-methoxy-4-(trifluoromethyl)phenoxy]-4-pyridyl]-5,5-dimethyl-imidazolidine-2,4-dione]
[1]
  Kv3.1 Activity at 10 μM Potentiation (%): 36%
  Kv3.1 Activity at 10 μM Voltage Shift (mV): −5.13 mV
[2]
  activation at 10 µM: 14%
  Kv3.2 Activity at 10 μM Voltage Shift (mV): −4.12 mV

## COc1cc(Oc2nccc(N3C(=O)NC4(CCCCC4)C3=O)c2F)ccc1C [Example 91, 3-[3-fluoro-2-(3-methoxy-4-methyl-phenoxy)-4-pyridyl]-1,3-diazaspiro[4.5]decane-2,4-dione]
[1]
  Kv3.1 Activity at 10 μM Potentiation (%): 150%
  Kv3.1 Activity at 10 μM Voltage Shift (mV): −10.63 mV
[2]
  activation at 10 µM: 137%
  Kv3.2 Activity at 10 μM Voltage Shift (mV): −6.75 mV

## O=C1NC2(CCCC2)C(=O)N1c1ccnc(Oc2ccc3c(c2)OC(F)(F)O3)c1F [Example 92, 3-[2-[(2,2-difluoro-1,3-benzodioxol-5-yl)oxy]-3-fluoro-4-pyridyl]-1,3-diazaspiro[4.4]nonane-2,4-dione]
[1]
  Kv3.1 Activity at 10 μM Potentiation (%): 227%
  Kv3.1 Activity at 10 μM Voltage Shift (mV): −7.49 mV
[2]
  activation at 10 µM: 93%
  Kv3.2 Activity at 10 μM Voltage Shift (mV): −5.37 mV

## CC[C@@]1(C)NC(=O)N(c2cc(Oc3ccc(C)c(OC)c3)ccn2)C1=O [Example 45, (5R)-5-ethyl-3-[4-(3-methoxy-4-methyl-phenoxy)-2-pyridyl]-5-methyl-imidazolidine-2,4-dione]
[1]
  Kv3.1 Activity at 10 μM Potentiation (%): 19%
  Kv3.1 Activity at 10 μM Voltage Shift (mV): −2.36 mV
[2]
  activation at 10 µM: 61%
  Kv3.2 Activity at 10 μM Voltage Shift (mV): −6.69 mV

## O=C1NC2(CCC2)C(=O)N1c1ccnc(Oc2ccc3c(c2)OC(F)(F)O3)c1 [Example 37, 7-[2-[(2,2-difluoro-1,3-benzodioxol-5-yl)oxy]-4-pyridyl]-5,7-diazaspiro[3.4]octane-6,8-dione]
[1]
  Kv3.1 Activity at 10 μM Potentiation (%): 90%
  Kv3.1 Activity at 10 μM Voltage Shift (mV): −5.21 mV
[2]
  activation at 10 µM: 63%
  Kv3.2 Activity at 10 μM Voltage Shift (mV): −3.6 mV

## CC[C@H]1NC(=O)N(c2cc(Oc3ccc(C)c(OC)c3)ccn2)C1=O [Example 41, (5R)-5-ethyl-3-[4-(3-methoxy-4-methyl-phenoxy)-2-pyridyl]imidazolidine-2,4-dione]
[1]
  Kv3.1 Activity at 10 μM Potentiation (%): 67%
  Kv3.1 Activity at 10 μM Voltage Shift (mV): −4.46 mV
[2]
  activation at 10 µM: 53%
  Kv3.2 Activity at 10 μM Voltage Shift (mV): −3.77 mV

## CC1(C)NC(=O)N(c2ccnc(Oc3ccc4c(c3)CCC4)c2)C1=O [Example 3, 3-(2-indan-5-yloxy-4-pyridyl)-5,5-dimethyl-imidazolidine-2,4-dione]
[1]
  Kv3.1 Activity at 10 μM Potentiation (%): 58%
  Kv3.1 Activity at 10 μM Voltage Shift (mV): −4.65 mV
[2]
  activation at 10 µM: 66%
  Kv3.2 Activity at 10 μM Voltage Shift (mV): −6.71 mV

## CC[C@@]1(C)NC(=O)N(c2ccnc(Oc3ccc4c(c3)CCC4)c2)C1=O [Example 13, (5R)-5-ethyl-3-(2-indan-5-yloxy-4-pyridyl)-5-methyl-imidazolidine-2,4-dione]
[1]
  Kv3.1 Activity at 10 μM Potentiation (%): 27%
  Kv3.1 Activity at 10 μM Voltage Shift (mV): −3.9 mV
[2]
  activation at 10 µM: 48%
  Kv3.2 Activity at 10 μM Voltage Shift (mV): −4.48 mV

## CC1(C)NC(=O)N(c2ccnc(Oc3ccc4c(c3)OC(F)(F)O4)c2)C1=O [Example 9, 3-[2-[(2,2-difluoro-1,3-benzodioxol-5-yl)oxy]-4-pyridyl]-5,5-dimethyl-imidazolidine-2,4-dione]
[1]
  Kv3.1 Activity at 10 μM Potentiation (%): 80%
  Kv3.1 Activity at 10 μM Voltage Shift (mV): −6.49 mV
[2]
  activation at 10 µM: 30%
  Kv3.2 Activity at 10 μM Voltage Shift (mV): −3.92 mV

## COc1cc(Oc2cc(N3C(=O)NC4(CCC4)C3=O)ccn2)ccc1C [Example 34, 7-[2-(3-methoxy-4-methyl-phenoxy)-4-pyridyl]-5,7-diazaspiro[3.4]octane-6,8-dione]
[1]
  Kv3.1 Activity at 10 μM Potentiation (%): 27%
  Kv3.1 Activity at 10 μM Voltage Shift (mV): −4.19 mV
[2]
  activation at 10 µM: 25%
  Kv3.2 Activity at 10 μM Voltage Shift (mV): −1.25 mV

## CC[C@@]1(C)NC(=O)N(c2cccc(Oc3cc(OC)cc(OC)c3)n2)C1=O [Example 70, (5R)-3-[6-(3,5-dimethoxyphenoxy)-2-pyridyl]-5-ethyl-5-methyl-imidazolidine-2,4-dione]
[1]
  Kv3.1 Activity at 10 μM Potentiation (%): 44%
  Kv3.1 Activity at 10 μM Voltage Shift (mV): −2.08 mV
[2]
  activation at 10 µM: 34%
  Kv3.2 Activity at 10 μM Voltage Shift (mV): −2.42 mV

## O=C1NC2(CCCCC2)C(=O)N1c1ccnc(Oc2ccc3c(c2)OCO3)c1 [Example 35, 3-[2-(1,3-benzodioxol-5-yloxy)-4-pyridyl]-1,3-diazaspiro[4.5]decane-2,4-dione]
[1]
  Kv3.1 Activity at 10 μM Potentiation (%): 41%
  Kv3.1 Activity at 10 μM Voltage Shift (mV): −3.4 mV
[2]
  activation at 10 µM: 55%
  Kv3.2 Activity at 10 μM Voltage Shift (mV): −3.73 mV

From patent US12090146B2, “Substituted-pyridinyl compounds and uses thereof” (Bionomics Limited, priority 2018, dated 2024)
